In PMC10861852, “Loss of activation by GABA in vertebrate delta ionotropic glutamate receptors” (Proceedings of the National Academy of Sciences of the …, 2024):
Residue numbers refer to the chain shown, from its start. Read-outs that look alike come from different tables or passages of the source.

Experiments:
[1] = target: T1, AcaGluD (Acanthaster planci, UniProt A0A8B7XXR5); assay: Two-electrode voltage clamp, ligand-gated currents in oocytes; type: cell-based
T1 sequence (A0A8B7XXR5 24-958): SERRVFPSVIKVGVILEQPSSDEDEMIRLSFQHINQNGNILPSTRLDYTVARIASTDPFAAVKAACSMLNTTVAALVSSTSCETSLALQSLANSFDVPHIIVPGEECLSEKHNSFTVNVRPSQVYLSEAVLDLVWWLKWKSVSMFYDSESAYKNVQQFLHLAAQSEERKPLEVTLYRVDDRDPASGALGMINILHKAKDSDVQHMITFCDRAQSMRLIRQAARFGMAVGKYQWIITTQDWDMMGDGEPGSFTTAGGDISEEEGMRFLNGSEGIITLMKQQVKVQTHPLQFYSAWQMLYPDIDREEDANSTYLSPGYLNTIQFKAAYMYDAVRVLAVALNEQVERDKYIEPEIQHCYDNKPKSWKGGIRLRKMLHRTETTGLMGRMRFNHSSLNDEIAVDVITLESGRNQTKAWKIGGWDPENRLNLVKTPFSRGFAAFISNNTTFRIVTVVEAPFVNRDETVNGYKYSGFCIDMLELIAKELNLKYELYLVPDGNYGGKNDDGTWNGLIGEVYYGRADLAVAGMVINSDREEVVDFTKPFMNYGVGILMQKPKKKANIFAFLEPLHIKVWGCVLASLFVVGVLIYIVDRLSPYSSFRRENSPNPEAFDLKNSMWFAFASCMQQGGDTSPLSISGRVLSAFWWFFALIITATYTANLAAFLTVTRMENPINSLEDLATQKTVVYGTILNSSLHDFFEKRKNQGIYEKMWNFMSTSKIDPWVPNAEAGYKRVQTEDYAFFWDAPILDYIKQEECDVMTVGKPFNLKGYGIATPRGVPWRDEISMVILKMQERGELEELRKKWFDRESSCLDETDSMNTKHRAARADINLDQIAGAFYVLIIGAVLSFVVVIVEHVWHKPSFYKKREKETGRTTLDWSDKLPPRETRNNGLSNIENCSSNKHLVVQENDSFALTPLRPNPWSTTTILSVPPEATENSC

[2] = target: T2, WT RatGluD2 (Rattus norvegicus, UniProt Q63226); assay: Two-electrode voltage clamp in oocytes; type: cell-based; details: n = 4
T2 construct: expressed in transfected cells; host or cells: Xenopus laevis oocytes injected with mRNA
T2 sequence (Q63226 24-1007): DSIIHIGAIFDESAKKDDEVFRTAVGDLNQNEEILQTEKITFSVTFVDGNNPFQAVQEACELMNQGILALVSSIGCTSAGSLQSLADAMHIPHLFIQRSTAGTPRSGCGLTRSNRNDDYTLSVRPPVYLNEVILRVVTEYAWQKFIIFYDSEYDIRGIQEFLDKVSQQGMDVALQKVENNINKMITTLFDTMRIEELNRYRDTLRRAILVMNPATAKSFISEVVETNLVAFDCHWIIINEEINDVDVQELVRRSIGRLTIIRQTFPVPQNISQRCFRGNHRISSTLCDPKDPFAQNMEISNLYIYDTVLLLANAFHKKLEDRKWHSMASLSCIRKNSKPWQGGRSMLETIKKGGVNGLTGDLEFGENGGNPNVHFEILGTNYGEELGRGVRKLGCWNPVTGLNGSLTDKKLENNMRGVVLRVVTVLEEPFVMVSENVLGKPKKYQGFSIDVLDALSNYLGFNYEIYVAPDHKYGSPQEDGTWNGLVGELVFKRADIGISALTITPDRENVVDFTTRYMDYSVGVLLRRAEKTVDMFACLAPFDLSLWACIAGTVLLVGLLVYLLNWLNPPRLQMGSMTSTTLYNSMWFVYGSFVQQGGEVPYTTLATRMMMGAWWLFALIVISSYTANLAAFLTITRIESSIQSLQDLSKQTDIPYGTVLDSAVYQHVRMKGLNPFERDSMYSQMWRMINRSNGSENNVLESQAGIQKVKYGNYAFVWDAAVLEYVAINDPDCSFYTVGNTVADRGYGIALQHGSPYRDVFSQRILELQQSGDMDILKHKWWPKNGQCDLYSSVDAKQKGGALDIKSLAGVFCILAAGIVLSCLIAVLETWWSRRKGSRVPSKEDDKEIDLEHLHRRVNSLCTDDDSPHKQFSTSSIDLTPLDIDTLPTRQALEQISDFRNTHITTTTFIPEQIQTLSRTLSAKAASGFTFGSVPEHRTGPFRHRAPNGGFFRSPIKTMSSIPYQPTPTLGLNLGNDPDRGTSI

[3] = target: T3, RatGluD2^Lc (Rattus norvegicus, UniProt Q63226, A654T); assay: Two-electrode voltage clamp, inhibition of constitutive current in oocytes; details: each n = 4
T3 sequence (Q63226 24-1007 A654T): T2 sequence (Q63226 24-1007) with A631T
Source text: (C) Left panels, example recordings of oocytes expressing A654T lurcher-mutant RatGluD2 (RatGluD2Lc) in response to indicated AMPA iGluR antagonists and D-serine. Dashed line, zero current baseline. Right panel, % inhibition at different oocytes (dots) and resulting means (columns).

[4] = target: RatGluA2 AMPA receptors (Rattus norvegicus, UniProt P19491); assay: Two-electrode voltage clamp, glutamate-gated current in oocytes expressing RatGluA2 and human TARPγ2; type: cell-based; details: n = 5
Source text: (dots) and resulting means (columns).

[5] = target: T4, RatGluD2^Lc^-9x (Rattus norvegicus, UniProt Q63226, A654T/A686S/D753Q/K694R/N720P/N763K/P806D/Q786M/R787V/Y613F); assay: Two-electrode voltage clamp, responses to ligands in mutant-expressing oocytes; type: cell-based; details: pentamidine 100 μM
T4 construct: expressed in transfected cells; host or cells: Xenopus laevis oocytes injected with mRNA
Source text: If the 10 mutations discussed above drove the loss of function in vertebrate delta iGluRs, one might expect that the latter could be “reawakened” via active invertebrate delta iGluR-like mutations here. We therefore engineered mutant RatGluD2 iGluRs to contain at these positions the equivalent residues from starfish delta iGluRs. These mutants were RatGluD2^5x, containing Y613F, A686S, K694R, N720P, and P806D substitutions (pink in Fig. 6A), and RatGluD2^9x, additionally containing N763K, D753Q, Q786M, and R787V (cyan in Fig. 6A).
Fig. 6. AcaGluD-like mutations alter RatGluD2 receptor function. (A) D-serine bound RatGluD2 from X-ray structure PDB:2v3u ([13]). Selected amino acid residues are indicated, colored, shown as sticks, and labeled 5×, 9×, 10×, and/or Lc according to the multiple mutants they were incorporated into. 10× mutant included 10×, 9×, and 5× positions. 9× included 9× and 5×. 5× included only 5×. […] (B–E) Example current responses to different neurotransmitter ligands (30 mM) and to pore blocker pentamidine (Pent, 100 μM) in oocytes expressing indicated RatGluD2 mutants. The dashed line indicates zero current baseline. (F) Individual (dots) and mean (columns) responses to ligands in oocytes expressing indicated RatGluD2 mutants (n = 4 to 5).

[6] = tested on: D825P AcaGluD; assay: Two-electrode voltage clamp, GABA-gated current before/after concanavalin A treatment; type: cell-based, Acanthaster planci; details: concanavalin A 10 μM, 30 mM GABA
Source text: (§1) Fig. 5. RatGluD2-like substitutions impair the ligand-gated activity of AcaGluD receptors. (A) Ligand-gated currents in oocytes expressing indicated mutant AcaGluD receptors or uninjected oocytes. (B) Maximum current amplitude (“Imax”, Upper) and relative ligand-gated current amplitude (“I/Imax”, Lower) and at wild-type (WT) and mutant AcaGluD receptors (mean ± SEM, n = 3 to 5). (C) Immunolabeling c-Myc tag in AcaGluD C-terminal. Upper, example micropgraphs. Lower, […] fluorescence units (RFU) plotted against relative radial distance, peaking at the oocyte surface. White scale bars, 100 μm. (D) AlphaFold model of two adjacent AcaGluD LBDs (rear LBD faded). Selected amino acid residues colored and shown as sticks. Magenta, drastic loss of function; cyan, moderate loss of function. […] (E) Upper, example, and Lower, summarized current responses to 30 mM GABA (“IGABA”) in WT or mutant AcaGluD-expressing oocytes before or after treatment with concanavalin A (“ConA”, 10 μM).

[7] = tested on: F640Y AcaGluD; assay: as above; type: cell-based, Acanthaster planci; details: concanavalin A 10 μM, 30 mM GABA
Source text: as §1

[8] = tested on: R721K AcaGluD; assay: as above; type: cell-based, Acanthaster planci; details: concanavalin A 10 μM, 30 mM GABA
Source text: as §1

[9] = tested on: S713A AcaGluD; assay: as above; type: cell-based, Acanthaster planci; details: concanavalin A 10 μM, 30 mM GABA
Source text: as §1

T4 sequence (Q63226 24-1007 Y613F/A654T/A686S/K694R/N720P/D753Q/N763K/Q786M/R787V/P806D): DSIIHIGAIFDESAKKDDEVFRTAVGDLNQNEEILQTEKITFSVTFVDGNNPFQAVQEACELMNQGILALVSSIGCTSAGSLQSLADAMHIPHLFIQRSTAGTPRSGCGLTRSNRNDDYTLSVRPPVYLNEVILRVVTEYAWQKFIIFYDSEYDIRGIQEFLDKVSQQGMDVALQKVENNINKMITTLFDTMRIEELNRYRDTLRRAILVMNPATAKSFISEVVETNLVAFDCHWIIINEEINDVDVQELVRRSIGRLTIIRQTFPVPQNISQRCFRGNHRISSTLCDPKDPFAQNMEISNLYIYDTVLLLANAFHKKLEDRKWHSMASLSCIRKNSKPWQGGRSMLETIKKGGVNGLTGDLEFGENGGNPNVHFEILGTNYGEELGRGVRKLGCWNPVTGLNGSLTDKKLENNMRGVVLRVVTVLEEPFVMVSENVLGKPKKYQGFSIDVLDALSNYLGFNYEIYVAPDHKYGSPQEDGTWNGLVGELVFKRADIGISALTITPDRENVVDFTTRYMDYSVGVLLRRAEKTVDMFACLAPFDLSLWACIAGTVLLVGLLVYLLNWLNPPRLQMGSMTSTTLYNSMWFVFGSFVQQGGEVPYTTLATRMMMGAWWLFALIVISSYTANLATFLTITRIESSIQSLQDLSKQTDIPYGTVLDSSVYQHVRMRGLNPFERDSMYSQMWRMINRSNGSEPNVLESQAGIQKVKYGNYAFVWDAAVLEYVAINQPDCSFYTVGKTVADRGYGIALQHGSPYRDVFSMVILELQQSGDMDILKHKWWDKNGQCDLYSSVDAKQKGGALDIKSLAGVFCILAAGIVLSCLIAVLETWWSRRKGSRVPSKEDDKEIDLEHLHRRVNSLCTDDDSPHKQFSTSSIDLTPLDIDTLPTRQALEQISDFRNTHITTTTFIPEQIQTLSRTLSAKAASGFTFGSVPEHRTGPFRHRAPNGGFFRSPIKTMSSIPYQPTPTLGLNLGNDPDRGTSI
Sequence of RatGluA2 AMPA receptors (P19491 22-883 isoform P19491-2 limits assumed): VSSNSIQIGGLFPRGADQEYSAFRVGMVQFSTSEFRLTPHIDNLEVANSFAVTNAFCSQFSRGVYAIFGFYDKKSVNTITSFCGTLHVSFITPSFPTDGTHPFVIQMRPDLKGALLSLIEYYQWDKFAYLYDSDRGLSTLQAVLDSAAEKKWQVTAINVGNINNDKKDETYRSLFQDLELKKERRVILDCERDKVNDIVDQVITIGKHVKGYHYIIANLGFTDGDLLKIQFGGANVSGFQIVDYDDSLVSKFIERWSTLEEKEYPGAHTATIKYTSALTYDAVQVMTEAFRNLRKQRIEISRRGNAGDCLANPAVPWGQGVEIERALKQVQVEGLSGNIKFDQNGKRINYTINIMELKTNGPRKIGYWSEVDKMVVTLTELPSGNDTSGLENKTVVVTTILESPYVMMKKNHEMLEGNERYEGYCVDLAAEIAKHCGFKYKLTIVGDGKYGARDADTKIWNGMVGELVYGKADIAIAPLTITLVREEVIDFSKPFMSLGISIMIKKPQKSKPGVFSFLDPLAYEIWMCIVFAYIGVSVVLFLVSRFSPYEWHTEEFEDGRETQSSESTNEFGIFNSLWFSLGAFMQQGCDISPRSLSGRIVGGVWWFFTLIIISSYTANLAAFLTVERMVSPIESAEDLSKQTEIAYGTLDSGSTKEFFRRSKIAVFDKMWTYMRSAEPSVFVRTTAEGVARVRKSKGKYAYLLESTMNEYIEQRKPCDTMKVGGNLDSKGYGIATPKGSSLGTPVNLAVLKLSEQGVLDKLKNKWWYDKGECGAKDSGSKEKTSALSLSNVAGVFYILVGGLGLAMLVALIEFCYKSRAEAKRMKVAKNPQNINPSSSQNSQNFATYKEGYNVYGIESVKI
Sequence of RatGluA2 AMPA receptors (Q9Y698 whole entry partner): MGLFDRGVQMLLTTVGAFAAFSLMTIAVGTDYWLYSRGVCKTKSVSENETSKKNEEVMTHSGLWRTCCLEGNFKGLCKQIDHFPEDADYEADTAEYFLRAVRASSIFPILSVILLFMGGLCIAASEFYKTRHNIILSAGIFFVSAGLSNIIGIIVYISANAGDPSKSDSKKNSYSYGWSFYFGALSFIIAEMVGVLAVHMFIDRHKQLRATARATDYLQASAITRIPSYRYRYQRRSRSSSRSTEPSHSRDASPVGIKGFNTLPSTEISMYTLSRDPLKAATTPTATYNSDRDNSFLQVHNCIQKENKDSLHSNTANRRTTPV

Which results are given for `NS(=O)(=O)c1cccc2c1c([N+](=O)[O-])cc1nc(O)c(O)nc12` [NBQX]?
currents elicited when applied alone ([1]; 100 μM, applied alone): elicited no currents; inhibition of GABA-gated current ([1]; 100 μM, coapplied with ~EC30 GABA concentration): 61 ± 3%; enhancement of glutamate-gated currents ([1]; 100 μM, n = 5): 34 ± 3%; effect on oocytes expressing WT RatGluD2 [2]: no effect; inhibition of constitutive currents [3]: 9 ± 0.2%

For `N=C(N)c1ccc(OCCCCCOc2ccc(C(=N)N)cc2)cc1` [pentamidine], which inhibition at 100 µM ([1]; 100 μM, n = 5, read-out: block of GABA-gated current) is on record?
The inhibition at 100 µM was 68 ± 5%.

And the inhibition at 100 µM ([1]; 100 µM, n = 7, read-out: block of glutamate-gated current)?
The inhibition at 100 µM was 78 ± 2%.

What about the inhibition at 100 µM [4] of the same compound?
The inhibition at 100 µM was 37 ± 3%.

And the “effect on glycine-gated currents” value [5]?
Its value is “inhibited”.

Which results are given for Concanavalin A?
increase in current amplitude after treatment [6]: fourfold increase; increase in activity (GABA-gated current) after treatment [7]: > 100 fold; increase in activity (GABA-gated current) after treatment [8]: > 100 fold; increase in activity (GABA-gated current) after treatment [9]: > 100 fold
